Patent US12630498B2 (Genzyme Corporation, priority 2019, dated 2026)

Assays:
[1] = molecular target: T1, human Cystic Fibrosis Transmembrane Conductance Regulator (CFTR) harboring the ΔF508 mutation (Homo sapiens, UniProt P13569, DEL508-508); assay: H441 cell ΔF508-CFTR-HRP cell surface assay (Emax and EC50); type: cell-based; details: for Emax: NCI-H441, NA = Not active
T1 construct: expressed in transfected cells; host or cells: H441 carcinoma line (G418-selected)
In short: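 H441 and 41o- bronchial epithelial cells expressing ΔF508-CFTR with an extracellular-loop-4 HRP tag were treated with a 15-point compound series (24.5–0.001 μM) for two nights, H441 at 27° C, 41o- at 37° C with 0.0005 mg/ml doxycycline. Surface HRP luminescence read; % of maximum VX809 signal and EC50 derived.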

[2] = molecular target: T2, CFTR-mediated transepithelial chloride transport in primary human bronchial epithelial cells from a ΔF508 homozygous CF donor (Homo sapiens, UniProt P13569, DEL508-508); assay: TECC24 recording of CFTR-mediated transepithelial chloride transport in CF-HBE cells (AUC fold over DMSO); type: cell-based; details: test agent 10 μM, 48 hours incubation, AUC of forskolin-stimulated IEQ relative to DMSO
T2 construct: Primary human bronchial epithelial cells from a ΔF508 homozygous CF donor; host or cells: primary CF-HBE cells, ΔF508 homozygous donor
In short: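 Equivalent Cl⁻ current was derived from transepithelial voltage and resistance, and its AUC from forskolin (10 μM) to CFTRinh-172 (20 μM) was divided by the DMSO AUC. Benzamil 10 μM blocked ENaC. Cells were ΔF508-homozygous primary bronchial epithelia pretreated 48 h at 36.5 °C in IL-13 medium.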

T2 sequence (P13569 with tags, fused parts or gaps DEL508-508): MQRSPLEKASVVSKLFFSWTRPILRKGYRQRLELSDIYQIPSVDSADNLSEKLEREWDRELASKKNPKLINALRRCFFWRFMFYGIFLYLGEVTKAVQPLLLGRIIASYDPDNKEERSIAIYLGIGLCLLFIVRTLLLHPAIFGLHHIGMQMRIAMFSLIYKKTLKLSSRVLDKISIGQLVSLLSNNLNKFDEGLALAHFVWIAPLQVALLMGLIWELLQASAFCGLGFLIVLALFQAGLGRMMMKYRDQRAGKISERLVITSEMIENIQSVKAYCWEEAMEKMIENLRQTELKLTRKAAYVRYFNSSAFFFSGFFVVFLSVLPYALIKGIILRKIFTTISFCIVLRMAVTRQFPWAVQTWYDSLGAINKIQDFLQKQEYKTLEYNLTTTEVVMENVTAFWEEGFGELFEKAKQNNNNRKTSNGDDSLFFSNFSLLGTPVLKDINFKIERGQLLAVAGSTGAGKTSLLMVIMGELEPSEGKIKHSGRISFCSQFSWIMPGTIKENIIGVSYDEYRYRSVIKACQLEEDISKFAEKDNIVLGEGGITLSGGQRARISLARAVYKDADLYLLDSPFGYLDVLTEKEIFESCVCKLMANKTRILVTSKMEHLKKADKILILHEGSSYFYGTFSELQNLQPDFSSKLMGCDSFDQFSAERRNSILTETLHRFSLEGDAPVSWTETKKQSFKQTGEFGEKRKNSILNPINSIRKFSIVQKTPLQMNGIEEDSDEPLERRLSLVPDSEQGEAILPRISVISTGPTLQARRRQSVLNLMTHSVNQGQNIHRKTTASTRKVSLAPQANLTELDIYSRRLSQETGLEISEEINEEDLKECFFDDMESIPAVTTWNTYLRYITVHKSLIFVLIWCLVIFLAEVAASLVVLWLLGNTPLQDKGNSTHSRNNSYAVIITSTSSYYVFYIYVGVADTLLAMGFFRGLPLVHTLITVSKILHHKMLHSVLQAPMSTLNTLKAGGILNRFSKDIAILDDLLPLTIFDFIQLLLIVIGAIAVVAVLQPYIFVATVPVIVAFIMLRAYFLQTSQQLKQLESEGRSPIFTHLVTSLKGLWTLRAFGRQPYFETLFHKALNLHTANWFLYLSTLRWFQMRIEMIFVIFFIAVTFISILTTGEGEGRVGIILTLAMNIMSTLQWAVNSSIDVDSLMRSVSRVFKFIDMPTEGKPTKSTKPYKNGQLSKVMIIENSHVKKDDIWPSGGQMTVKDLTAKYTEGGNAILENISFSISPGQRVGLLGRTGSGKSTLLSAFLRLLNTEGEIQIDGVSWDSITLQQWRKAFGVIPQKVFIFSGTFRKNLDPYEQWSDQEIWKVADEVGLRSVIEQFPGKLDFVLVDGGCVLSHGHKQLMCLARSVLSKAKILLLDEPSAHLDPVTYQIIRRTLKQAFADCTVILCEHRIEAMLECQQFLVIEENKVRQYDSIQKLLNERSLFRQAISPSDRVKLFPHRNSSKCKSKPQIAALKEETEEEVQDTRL
T1 sequence (P13569 with tags, fused parts or gaps DEL508-508): as above

Structure (SMILES)	EC50 [1] [nM]	Emax [1] [%]	TECC24 AUC fold over DMSO @10 μM [2]
O=C(N[C@H](C(=O)O)C(c1ccccc1)c1ccccc1)c1ccc2cc(F)ccc2c1OCc1nc2ccccc2s1 [Example 216, (S)-2-(1-(benzo[d]thiazol-2-ylmethoxy)-6-fluoro-2-naphthamido)-3,3-diphenylpropanoic Acid]	900	115	C (“C” refers to AUC @10 uM <4)
O=C(N[C@@H](Cc1ccc(C(F)(F)F)cc1)C(=O)O)c1ccc2cc(F)ccc2c1OCc1nc2ccccc2s1 [Example 217, (S)-2-(1-(benzo[d]thiazol-2-ylmethoxy)-6-fluoro-2-naphthamido)-3-(4-(trifluoromethyl)phenyl)propanoic Acid]	15900	65.8	C (“C” refers to AUC @10 uM <4)
CC(C)(C)C[C@H](NC(=O)c1ccc2cc(F)ccc2c1OCc1nc2ccccc2s1)C(=O)O [Example 218, (S)-2-(1-(benzo[d]thiazol-2-ylmethoxy)-6-fluoro-2-naphthamido)-4,4-dimethylpentanoic Acid]	4800	86.8	C (“C” refers to AUC @10 uM <4)
C#CC(C)(C)C(NC(=O)c1ccc2ccc(C)cc2c1OCc1ccc(C(F)(F)F)cc1)C(=O)O (stereo not drawn) [Example 219, 3,3-dimethyl-2-[[7-methyl-1-[[4-(trifluoromethyl)phenyl]methoxy]naphthalene-2-carbonyl]amino]pent-4-ynoic Acid]	400	191	A (“A” refers to AUC @10 uM >6)
CC(C)(C)[C@H](NC(=O)c1ccc2c(F)cccc2c1OCc1ccc(OC(F)(F)F)cc1)C(=O)O [Example 221, (2S)-2-[[5-fluoro-1-[[4-(trifluoromethoxy)phenyl]methoxy]naphthalene-2-carbonyl]amino]-3,3-dimethyl-butanoic Acid]	1200	125	A (“A” refers to AUC @10 uM >6)
CC(C)(C)[C@H](NC(=O)c1ccc2ccccc2c1OC[C@H]1CC[C@H](C(F)(F)F)CC1)C(=O)O [Example 222, (2S)-3,3-dimethyl-2-[[1-[[4-(trifluoromethyl)cyclohexyl]methoxy]naphthalene-2-carbonyl]amino]butanoic Acid]	2900	154	A (“A” refers to AUC @10 uM >6)
C=CC(C)(C)C(NC(=O)c1ccc2ccccc2c1OCc1ccc(C(F)(F)F)cc1)C(=O)O (stereo not drawn) [Example 223, 3,3-dimethyl-2-[[1-[[4-(trifluoromethyl)phenyl]methoxy]naphthalene-2-carbonyl]amino]pent-4-enoic Acid]	800	112	B (“B” refers to AUC @10 uM between 4-6)
CCC(C)(C)[C@H](NC(=O)c1ccc2cc(C)ccc2c1OCc1ccc(C(F)(F)F)cc1)C(=O)O [Example 225, (2S)-3,3-dimethyl-2-[[6-methyl-1-[[4-(trifluoromethyl)phenyl]methoxy]naphthalene-2-carbonyl]amino]pentanoic Acid]	12200	97	A (“A” refers to AUC @10 uM >6)
CCC(C)(C)[C@H](NC(=O)c1ccc2c(F)cccc2c1OCc1ccc(OC(F)(F)F)cc1)C(=O)O [Example 226, (2S)-2-[[5-fluoro-1-[[4-(trifluoromethoxy)phenyl]methoxy]naphthalene-2-carbonyl]amino]-3,3-dimethyl-pentanoic Acid]	400	139	B (“B” refers to AUC @10 uM between 4-6)
C#CC(C)(C)C(NC(=O)c1ccc2ccccc2c1OCc1ccc(SC(F)(F)F)cc1)C(=O)O (stereo not drawn) [Example 227, 3,3-dimethyl-2-[[1-[[4-(trifluoromethylsulfanyl)phenyl]methoxy]naphthalene-2-carbonyl]amino]pent-4-ynoic Acid]	1300	160	C (“C” refers to AUC @10 uM <4)
C#CC(C)(C)C(NC(=O)c1ccc2ccccc2c1OCc1ccc(C(F)(F)F)cc1)C(=O)O (stereo not drawn) [Example 228, 3,3-dimethyl-2-[[1-[[4-(trifluoromethyl)phenyl]methoxy]naphthalene-2-carbonyl]amino]pent-4-ynoic Acid]	2000	215	A (“A” refers to AUC @10 uM >6)
CCC(C)(C)[C@H](NC(=O)c1ccc2c(F)cccc2c1OCc1ccc(C(F)(F)F)cc1)C(=O)O [Example 230, (2S)-2-[[5-fluoro-1-[[4-(trifluoromethyl)phenyl]methoxy]naphthalene-2-carbonyl]amino]-3,3-dimethyl-pentanoic Acid]	600	152	A (“A” refers to AUC @10 uM >6)

Now from value to molecule:

EC50 [1] [nM]	Emax [1] [%]	TECC24 AUC fold over DMSO @10 μM [2]	Structure (SMILES)
7800	70.1	C (“C” refers to AUC @10 uM <4)	CC(C)(C)[C@H](NC(=O)c1ccc2ccccc2c1OCc1ccc([N+](=O)[O-])cc1)C(=O)O [Example 231, (2S)-3,3-dimethyl-2-[[1-[(4-nitrophenyl)methoxy]naphthalene-2-carbonyl]amino]butanoic Acid]
12200	156	A (“A” refers to AUC @10 uM >6)	Cc1ccc2c(OCc3ccc(C(F)(F)F)cc3)c(C(=O)N[C@H](C(=O)O)C(C)(C)C)ccc2c1 [Example 233, (2S)-3,3-dimethyl-2-[[6-methyl-1-[[4-(trifluoromethyl)phenyl]methoxy]naphthalene-2-carbonyl]amino]butanoic Acid]
1300	140	A (“A” refers to AUC @10 uM >6)	C#CC(C)(C)C(NC(=O)c1ccc2ccccc2c1OCc1ccc(OC(F)(F)F)cc1)C(=O)O (stereo not drawn) [Example 234, 3,3-dimethyl-2-[[1-[[4-(trifluoromethoxy)phenyl]methoxy]naphthalene-2-carbonyl]amino]pent-4-ynoic Acid]
1000	130	B (“B” refers to AUC @10 uM between 4-6)	CC(C)(C)[C@H](NC(=O)c1ccc2c(F)cccc2c1OCc1ccc(C(F)(F)F)cc1)C(=O)O [Example 236, (2S)-2-[[5-fluoro-1-[[4-(trifluoromethyl)phenyl]methoxy]naphthalene-2-carbonyl]amino]-3,3-dimethyl-butanoic Acid]
100	275	A (“A” refers to AUC @10 uM >6)	CC(C)(C)[C@H](NC(=O)c1ccc2ccc(Cl)cc2c1OCc1ccc(OC(F)(F)F)cc1)C(=O)O [Example 237, (S)-2-(7-chloro-1-((4-(trifluoromethoxy)benzyl)oxy)-2-naphthamido)-3,3-dimethyl Butanoic Acid]
800	143	C (“C” refers to AUC @10 uM <4)	O=C(NC(C(=O)O)C1(C(F)(F)F)CC1)c1ccc2ccc(Cl)cc2c1OCc1ccc(OC(F)(F)F)cc1 (stereo not drawn) [Example 238, 2-(7-chloro-1-((4-(trifluoromethoxy)benzyl)oxy)-2-naphthamido)-2-(1-(trifluoromethyl)cyclopropyl)acetic Acid]
300	235	A (“A” refers to AUC @10 uM >6)	CC(C)(C)[C@H](NC(=O)c1ccc2ccc(F)cc2c1OCc1ccc(OC(F)(F)F)cc1)C(=O)O [Example 239, (S)-2-(7-fluoro-1-((4-(trifluoromethoxy)benzyl)oxy)-2-naphthamido)-3,3-dimethyl Butanoic Acid]
800	122	C (“C” refers to AUC @10 uM <4)	O=C(NC(C(=O)O)C1(C(F)(F)F)CC1)c1ccc2ccc(F)cc2c1OCc1ccc(OC(F)(F)F)cc1 (stereo not drawn) [Example 240, 2-(7-fluoro-1-((4-(trifluoromethoxy)benzyl)oxy)-2-naphthamido)-2-(1-(trifluoromethyl)cyclopropyl)acetic Acid]
100	236	A (“A” refers to AUC @10 uM >6)	CC(C)(C)[C@H](NC(=O)c1ccc2ccc(F)cc2c1OCc1ccc(C(F)(F)F)cc1)C(=O)O [Example 241, (S)-2-(7-fluoro-1-((4-(trifluoromethyl)benzyl)oxy)-2-naphthamido)-3,3-dimethylbutanoic Acid]
100	368	A (“A” refers to AUC @10 uM >6)	CCC(C)(C)[C@H](NC(=O)c1ccc2ccc(C(F)F)cc2c1OCc1ccc(C(F)(F)F)cc1)C(=O)O [Example 242, (2S)-2-[[7-(difluoromethyl)-1-[[4-(trifluoromethyl)phenyl]methoxy]naphthalene-2-carbonyl]amino]-3,3-dimethyl-pentanoic Acid]
500	159	A (“A” refers to AUC @10 uM >6)	CC(C)(C)[C@H](NC(=O)c1ccc2ccc(-c3cscn3)cc2c1OCc1ccc(C(F)(F)F)cc1)C(=O)O [Example 243, (2S)-3,3-dimethyl-2-[[7-thiazol-4-yl-1-[[4-(trifluoromethyl)phenyl]methoxy]naphthalene-2-carbonyl]amino]butanoic Acid]
